The source of these data is US10428151B2, “Treatment of hematologic malignancies with an anti-CXCR4 antibody” (BRISTOL-MYERS SQUIBB COMPANY, priority 2011, dated 2019).

Changes are numbered by the printed parent chain. “Also recorded” adds a separate entry of the source.

Assay [1] relates to Ramos cells. Description: Apoptosis of Ramos cells, Annexin V-FITC/PI, vs AMD3100. It is filed as cell-based, human. The note with it: 24 hours, antibody 10 μg/mL, AMD3100 6 μM. On the procedure: Cells were stained with Annexin V-FITC and propidium iodide (A). The percent of cells positive for Annexin V only or both Annexin V and PI double positive was determined (B).
Cells were stained with Annexin V-FITC and propidium iodide (PI).

The subject of assay [2] is Ramos cells. Description: Ramos cell proliferation, Cell-Titer-Glo. It is filed as cell-based, human. The note with it: 72 hours. On the procedure: Ramos cells were suspended at 1×10^5 cells/mL in growth media, incubated with the relevant antibodies, including isotype controls, and other test agents and cultured for 72 hours at 37° C. Cell-Titer-Glo (Promega) was added to wells, mixed, and incubated at room temperature for 10 minutes. The plate was read on a GloMax Luminometer (Promega).

A further assay has as its system RPMI-8226 cells. The experiment in a line: RPMI-8226 MM xenograft in SCID mice. The format is in vivo. On the procedure: The mice were randomized (n=8) when the tumor volume reached approximately 20 mm^3, dosed on Days 0, 3, 7, 10 and 14 with MDX-1338 (10 mg/kg/dose) alone or in combination with 50 mg/kg lenalidomide or in combination with 0.8 mg/kg bortezomib.

For assay [3], the system named is Bortezomib-resistant JJN-3R cells. Description: JJN-3R MM xenograft in SCID mice. Conditions: lenalidomide 50 mg/kg/dose IP, bortezomib 0.8 mg/kg/dose IV. The format is in vivo.
In another assay the test system is OPM-2 cells. The experiment in a line: OPM-2 MM xenograft in SCID mice.
For the next assay, the system named is MOLP-8 cells. Description: MOLP-8 MM xenograft in SCID mice. The format is in vivo. The note with it: for efficacy in MOLP8 tumors: lenalidomide 50 mg/kg, bortezomib 0.8 mg/kg, BMS-936564 10 mg/kg/dose. How it is done: In all the experiments, the mice were injected intraperitoneally on Days 0 and 7 with an IgG4 isotype control and a PBS vehicle control.
A further assay has as its system parental JJN-3 cells. The experiment in a line: JJN-3 MM xenograft in SCID mice. It is filed as in vivo. The note with it: bortezomib 0.8 mg/kg/dose IV, lenalidomide 50 mg/kg/dose IP. The source says:
5 million JJN-3 cells/mouse were implanted into SCID mice and the mice were randomized into groups of 8 when the tumor volume reached approximately 77 mm^3.

Another assay relates to MM.1S cells. Description: MM.1S MM xenograft in SCID mice. The format is in vivo.
The target of assay [4] is T1, CXCR4 (Homo sapiens, UniProt P61073). Description: 125I-CXCL12 binding competition on CEM cells (first experiment). Conditions: 100 pM 125I-CXCL12. On the procedure: A comparison of anti-CXCR4 antibodies on blocking CXCL12 binding to CEM cells was performed by a standard radio-labeled ligand binding assay. The anti-CXCR4 antibodies were serially diluted 1:3 to yield a range of concentrations from 300 nM to 137 pM. […] An irrelevant antibody of the same isotype was used as a negative control.

In assay [5] the test system is human umbilical vein endothelial cells (HuVEC). Description: HuVEC capillary tube formation. It is filed as cell-based. The note with it: HuVEC on MATRIGEL, 18 hours. On the procedure: In this example, the ability of the anti-CXCR4 human antibodies to inhibit capillary tube formation by human umbilical vein endothelial cells (HuVEC) was examined […]® was diluted 1:1 with RPMI and plated onto the wells of a 96 well plate and allowed to polymerize for 30 minutes at 37° C. HuVEC (from Cambrex, cat. # CC-2519) at 80% confluence were trypsinized and resuspended at 1×10^6 cells per ml in RPMI with 0.5% FBS. Antibodies were well mixed with HuVEC at a final concentration of 3 mg/ml and allowed to incubate at room temperature for 30 minutes. An irrelevant antibody of the same isotype or media alone was used as a negative control. As a positive control of inhibition of tube formation, a mouse anti-human αvβ3 (CD51/CD61) antibody (R&D Systems, cat. # MAB3050) was used. HuVEC with or without antibodies were plated onto the […]®-coated wells and incubated at 37° C. for 18 hours.
The HuVEC incubated with media alone or with the isotype-matched control antibody formed capillary tubes resulting in the appearance of connected cells across the plate with 3-5 points of connection or branch points per cell. […] The cells appeared isolated and with few or no branch points.

The test system of a further assay is Ramos tumor cells. Description: Ramos cell proliferation, 3H-thymidine incorporation. It is filed as cell-based, human. The note with it: 10^−3 to 300 nM; 72 hours. On the procedure:
In this example, the ability of the anti-CXCR4 human antibodies to inhibit proliferation of Ramos tumor cells (a human Burkitt's lymphoma cell line) in vitro was examined. […] The cells were incubated with antibody for 72 hours, with ^3H-thymidine being added for the final 24 hours of incubation to allow for monitoring of cell proliferation. Following the incubation, incorporation of ^3H-thymidine by the cells was measured by standard techniques. The results are shown in the graph of FIG. 11A.
(In general: Uptake of a labelled nucleoside into DNA is a usual measure of proliferation.)

Assay [6] has as its target T1, CXCR4. Description: CXCL12-induced calcium flux in CEM cells (Calcium 3 dye). It is filed as cell-based. The note with it: 50 nM CXCL12α. The text has this:
As a negative control, an irrelevant antibody of the same isotype was used.
In general terms: Calcium assays in cells follow changes in intracellular calcium, usually with a dye or a luminescent sensor.

Assay [7] addresses T1, CXCR4. Description: CXCL12-induced migration of CEM cells (first experiment). The format is cell-based. The note with it: 5 nM CXCL12α. How it is done:
The anti-CXCR4 antibodies were titrated in a 1:3 serial dilution series resulting in a concentration range from 100 nM to 1 pM and allowed to bind to labeled CEM cells at a density of 10 million cells per ml. As a negative control, an irrelevant antibody of the same isotype was used. Recombinant human CXCL12α (Peprotech) was added at 5 nM at 30 μl per well to the lower chamber of a 96 well Neuroprobe migration plate with 5.7 mm diameter filters per well. Each well contains […]. Labeled CEM cells with and without antibody were loaded onto the filters at a concentration of 0.5 million cells per well in a volume of 50 μl. The migration plate was incubated at 37° C. for 2.5 hours. […] The chemiluminescent signal was recorded on a Fusion instrument.

Assay [8] addresses T1, CXCR4. Description: Competition with FITC-labeled F9 for binding to CEM cells. Conditions: 300 nM to 5 pM. How it is done:
To determine the ability of a panel of anti-CXCR4 antibodies to compete for binding to CXCR4, competition studies were performed. […] The mixture of antibodies was then added to CEM cells and allowed to bind.

T1 sequence (P61073 whole entry): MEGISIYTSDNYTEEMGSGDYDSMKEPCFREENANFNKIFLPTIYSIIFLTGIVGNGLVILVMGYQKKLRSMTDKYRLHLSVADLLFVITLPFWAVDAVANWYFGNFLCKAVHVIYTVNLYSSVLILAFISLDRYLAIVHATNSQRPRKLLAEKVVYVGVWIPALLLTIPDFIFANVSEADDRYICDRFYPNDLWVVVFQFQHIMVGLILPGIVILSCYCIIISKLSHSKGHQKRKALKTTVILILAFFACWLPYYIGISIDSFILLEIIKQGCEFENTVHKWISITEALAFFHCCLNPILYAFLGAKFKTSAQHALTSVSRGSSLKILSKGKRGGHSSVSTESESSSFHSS
Text for OPM-2 cells: OPM-2 cells (10 million) were implanted into SCID mice as described.

Consider `c1cc(CN2CCCNCCNCCCNCC2)ccc1CN1CCCNCCNCCCNCC1` [AMD3100, Plerixafor], for which, in the assay with Ramos cells [1], the “percent of cells Annexin V/PI double positive” value was determined as 2.7% and the “percent of cells positive for Annexin V only” value is given as 2.0%. Moreover, in the assay with Ramos cells [2], the “inhibition of Ramos cell proliferation” value is on record as “did not inhibit proliferation”.
As for `CC[C@@]1(O)C(=O)OCc2c1cc1n(c2=O)Cc2cc3ccccc3nc2-1` [Camptothecin], the “inhibition of Ramos cell proliferation” value with Ramos cells [2] (10 μM) is recorded as “completely inhibited cell proliferation”.
`CC(C)C[C@H](NC(=O)[C@H](Cc1ccccc1)NC(=O)c1cnccn1)B(O)O` [bortezomib, reference compound]: in the assay with RPMI-8226 cells (Day 44, compared to isotype control, MDX-1338 10 mg/kg, lenalidomide 50 mg/kg, bortezomib 0.8 mg/kg), the “mean tumor growth inhibition” value turned out to be 70%. Further, the tumor growth inhibition entry in [3] is “Neither lenalidomide nor bortezomib alone inhibited tumor growth”. Further, the “median tumor growth inhibition” value in the assay with OPM-2 cells (Day 24, compared to vehicle control, MDX-1338 10 mg/kg/dose IP, bortezomib 0.8 mg/kg/dose IV) came out at 75%. The “efficacy in MOLP8 tumors” value in the assay with MOLP-8 cells was “relatively resistant”. In addition, the “efficacy in inhibiting tumor growth” value in the assay with parental JJN-3 cells is reported as “marginal efficacy”.
As for `Nc1cccc2c1CN(C1CCC(=O)NC1=O)C2=O` (stereo not shown) [lenalidomide, reference compound], the “efficacy in RPMI-8226 model” value in the assay with RPMI-8226 cells (50 mg/kg) is recorded as “marginal efficacy”. Further, in the assay on MM.1S cells (Day 25, compared to isotype control, MDX-1338 10 mg/kg/dose, lenalidomide 100 mg/kg), the “mean tumor growth inhibition” value is reported as 70%. Besides, the “tumor growth inhibition” value in the assay on MM.1S cells (MM.1S) is on record as “REVLIMID ® = 70%”; in assay [3], “Neither lenalidomide nor bortezomib alone inhibited tumor growth”; in the assay with MOLP-8 cells (MOLP8) it was “alone = 35%”. Besides, in the assay on OPM-2 cells (lenalidomide 50 mg/kg/dose IP), the “efficacy in OPM-2 model” value is listed as “minimal efficacy”. In addition, in the assay on MOLP-8 cells, the “efficacy in MOLP8 tumors” value is reported as “relatively resistant”. Moreover, in the assay with parental JJN-3 cells, the “efficacy in inhibiting tumor growth” value is listed as “ineffective in inhibiting tumor growth”.

B1: E2: human anti-CXCR4 monoclonal antibody; VH SEQ ID NO: 28, VL SEQ ID NO: 32 (antibody, listed as Homo sapiens, V domains shown)
VH: EVQLVQSGGGLVQPGGSLRLSCAAAGFTFSSYSMNWVRQAPGKGLEWVSYISSRSRTIYYADSVKGRFTISRDNAKNSLYLQMNSLRDEDTAVYYCARDYGGQPPYHYYYGMDVWGQGTTVTVSS
VL: EIVLTQSPSSLSASVGDRVTITCRASQGISNWLAWYQQKPEKAPKSLIYAASSLQSGVPSRFSGSGSGTDFTLTISSLQPEDFATYYCQQYNSYPRTFGQGTKVEIK
With B1, the “blockade of CXCL12 binding to CXCR4” value with CXCR4 [4] was “did not effectively block CXCL12 binding”. The “inhibition of capillary tube formation” value in assay [5] is recorded as “did not inhibit capillary tube formation”. Besides, the “inhibition of Ramos cell proliferation (3H-thymidine incorporation)” value in the assay on Ramos tumor cells is recorded as “able to inhibit Ramos cell proliferation”. Also, the “inhibition of CXCL12α-induced calcium flux” value with CXCR4 [6] was “did not significantly inhibit”. Further, the “inhibition of CXCL12α-induced migration” value with CXCR4 [7] is on record as “did not significantly inhibit migration”. In addition, in the assay with CXCR4 [8], the “ability to compete with F9 for binding to CEM cells” value is given as “able to compete with F9; also recorded: partial inhibition at high concentrations”.

B2: D1: human anti-CXCR4 monoclonal antibody; VH SEQ ID NO: 27, VL SEQ ID NO: 31 (antibody, listed as Homo sapiens, V domains shown)
VH: B1 VH with R56K, K76R, H107Y
VL: B1 VL with E1V, V3W, L4V, A25T, N31S, K45E, S46L
As to B2, in the assay with CXCR4 [7], the “inhibition of CXCL12α-induced migration” value is “did not significantly inhibit migration”. Further, the “ability to compete with F9 for binding to CEM cells” value in the assay with CXCR4 [8] is on record as “able to compete with F9”.
